Key:
Lysyl oxidase homolog 3 = target: T1, Lysyl oxidase homolog 3 (Homo sapiens, UniProt P58215); assay: Inhibition of recombinant human C-terminal His10-tagged LOXL3 (1 to 753 residues) assessed as reduction in H2O2 production using DAP as substrate preincubated for 2 hrs followed by substrate addition measured every 2 minutes for 50 minutes by Amplex red dye based fluorescence assay
T1 sequence (P58215 whole entry): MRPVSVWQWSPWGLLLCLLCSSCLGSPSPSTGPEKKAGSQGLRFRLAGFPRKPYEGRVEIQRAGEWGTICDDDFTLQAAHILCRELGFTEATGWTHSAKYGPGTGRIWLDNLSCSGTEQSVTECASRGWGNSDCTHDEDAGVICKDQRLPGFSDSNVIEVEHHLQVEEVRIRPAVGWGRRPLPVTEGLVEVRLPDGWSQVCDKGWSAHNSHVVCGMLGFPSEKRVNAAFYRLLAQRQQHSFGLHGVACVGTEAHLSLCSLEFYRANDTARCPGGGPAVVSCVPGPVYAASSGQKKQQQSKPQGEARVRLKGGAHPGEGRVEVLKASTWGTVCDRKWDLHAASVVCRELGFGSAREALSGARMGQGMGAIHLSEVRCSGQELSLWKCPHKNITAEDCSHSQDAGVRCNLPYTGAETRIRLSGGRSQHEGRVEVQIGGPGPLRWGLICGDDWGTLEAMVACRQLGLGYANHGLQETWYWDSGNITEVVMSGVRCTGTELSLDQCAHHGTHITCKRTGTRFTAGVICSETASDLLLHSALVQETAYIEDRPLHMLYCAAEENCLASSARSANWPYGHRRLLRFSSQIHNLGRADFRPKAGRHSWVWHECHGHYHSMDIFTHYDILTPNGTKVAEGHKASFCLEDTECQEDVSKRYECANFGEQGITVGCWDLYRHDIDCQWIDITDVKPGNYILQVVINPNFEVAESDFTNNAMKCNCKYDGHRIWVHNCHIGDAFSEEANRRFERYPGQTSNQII

[1] = target: T2, Amine oxidase [flavin-containing] A (Homo sapiens, UniProt P21397); assay: Inhibition of recombinant human MAO-A at 30 uM using tyramine as substrate preincubated for 2 hrs followed by substrate addition measured every 30 secs for 10 minutes by Amplex red dye based fluorescence assay
T2 sequence (P21397 whole entry): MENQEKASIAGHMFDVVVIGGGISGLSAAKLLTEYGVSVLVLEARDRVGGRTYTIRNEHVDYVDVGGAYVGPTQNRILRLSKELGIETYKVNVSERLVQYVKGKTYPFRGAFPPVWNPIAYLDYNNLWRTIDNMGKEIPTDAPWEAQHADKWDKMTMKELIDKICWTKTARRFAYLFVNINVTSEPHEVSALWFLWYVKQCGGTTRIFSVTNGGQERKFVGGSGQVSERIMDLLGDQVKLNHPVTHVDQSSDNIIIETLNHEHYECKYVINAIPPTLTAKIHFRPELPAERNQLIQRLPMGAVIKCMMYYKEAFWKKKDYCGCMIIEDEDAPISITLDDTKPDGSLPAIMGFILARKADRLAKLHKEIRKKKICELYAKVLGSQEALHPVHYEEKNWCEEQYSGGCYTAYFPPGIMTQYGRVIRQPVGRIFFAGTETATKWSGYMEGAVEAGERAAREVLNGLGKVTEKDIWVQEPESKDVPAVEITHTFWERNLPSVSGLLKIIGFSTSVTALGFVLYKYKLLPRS

Cytochrome P450 3A4 = Cytochrome P450 3A4 (Homo sapiens, UniProt P08684); assay: Inhibition of CYP3A4 (unknown origin); type: ADME
Lysyl oxidase homolog 2 = target: T3, Lysyl oxidase homolog 2 (Homo sapiens, UniProt Q9Y4K0); assay: Inhibition of full length recombinant human LOXL2 expressed in CHO cells assessed as reduction in H2O2 production using DAP as substrate preincubated for 2 hrs followed by substrate addition measured every 2 minutes for 50 minutes by Amplex red dye based fluorescence assay
T3 sequence (Q9Y4K0 whole entry): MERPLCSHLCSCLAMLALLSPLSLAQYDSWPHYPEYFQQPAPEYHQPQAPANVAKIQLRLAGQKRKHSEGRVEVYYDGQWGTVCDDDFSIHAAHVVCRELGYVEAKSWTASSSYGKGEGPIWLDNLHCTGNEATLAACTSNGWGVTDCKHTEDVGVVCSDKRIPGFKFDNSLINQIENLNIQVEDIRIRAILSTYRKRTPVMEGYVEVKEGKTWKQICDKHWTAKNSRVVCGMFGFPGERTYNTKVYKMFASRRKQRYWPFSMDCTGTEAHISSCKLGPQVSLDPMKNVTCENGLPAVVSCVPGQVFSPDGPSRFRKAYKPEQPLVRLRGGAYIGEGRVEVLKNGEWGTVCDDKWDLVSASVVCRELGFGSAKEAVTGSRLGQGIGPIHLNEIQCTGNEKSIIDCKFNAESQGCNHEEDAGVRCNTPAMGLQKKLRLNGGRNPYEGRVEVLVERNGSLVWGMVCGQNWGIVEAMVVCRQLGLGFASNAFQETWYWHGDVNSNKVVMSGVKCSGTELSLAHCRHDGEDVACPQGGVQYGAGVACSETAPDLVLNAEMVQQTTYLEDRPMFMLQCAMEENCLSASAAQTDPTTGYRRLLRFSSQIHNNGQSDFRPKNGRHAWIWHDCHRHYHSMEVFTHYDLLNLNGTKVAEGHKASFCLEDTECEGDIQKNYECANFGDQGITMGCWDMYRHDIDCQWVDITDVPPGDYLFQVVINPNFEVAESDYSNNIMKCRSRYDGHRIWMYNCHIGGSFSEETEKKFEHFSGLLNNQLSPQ

Sequence of Cytochrome P450 3A4 (P08684 whole entry): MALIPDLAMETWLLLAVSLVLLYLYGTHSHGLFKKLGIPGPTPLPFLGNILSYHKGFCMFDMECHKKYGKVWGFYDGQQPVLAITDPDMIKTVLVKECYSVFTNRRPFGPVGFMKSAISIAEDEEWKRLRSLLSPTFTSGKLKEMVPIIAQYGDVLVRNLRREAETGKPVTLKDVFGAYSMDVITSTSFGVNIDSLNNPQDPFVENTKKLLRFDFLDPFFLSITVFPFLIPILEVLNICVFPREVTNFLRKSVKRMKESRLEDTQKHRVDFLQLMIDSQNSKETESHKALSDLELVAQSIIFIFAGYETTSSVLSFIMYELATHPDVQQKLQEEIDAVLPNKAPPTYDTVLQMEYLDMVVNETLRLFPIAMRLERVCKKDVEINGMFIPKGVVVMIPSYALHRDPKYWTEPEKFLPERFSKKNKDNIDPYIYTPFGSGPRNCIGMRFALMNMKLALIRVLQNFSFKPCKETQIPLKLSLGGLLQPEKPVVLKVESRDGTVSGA

- IC50 (Lysyl oxidase homolog 3): 214 nM
- inhibition (INH) [1]: Not Active
- IC50 (Cytochrome P450 3A4): > 30000 nM
- IC50 (Lysyl oxidase homolog 2): 126 nM
SMILES: NCc1ccnc(Cl)c1

Reference: ChEMBL document CHEMBL3994667, “Small Molecule Lysyl Oxidase-like 2 (LOXL2) Inhibitors: The Identification of an Inhibitor Selective for LOXL2 over LOX” (ACS Med Chem Lett, 2017)
